Target: HPK1 (Homo sapiens (Human), UniProt Q92918)
Assay: HPK1 Kinase Binding Assay
Method in brief: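 Active HPK1 (added as 4 nM solution) was combined with compound (3-fold, 11-point series) and tracer 222 (18 nM) plus Eu-anti-GST antibody (4 nM) in 50 mM HEPES pH 7.5 with MgCl2 and DTT. After 1 h at 25 °C plates were read. Ki values were derived.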

Chain of HPK1 (Q92918 1-346): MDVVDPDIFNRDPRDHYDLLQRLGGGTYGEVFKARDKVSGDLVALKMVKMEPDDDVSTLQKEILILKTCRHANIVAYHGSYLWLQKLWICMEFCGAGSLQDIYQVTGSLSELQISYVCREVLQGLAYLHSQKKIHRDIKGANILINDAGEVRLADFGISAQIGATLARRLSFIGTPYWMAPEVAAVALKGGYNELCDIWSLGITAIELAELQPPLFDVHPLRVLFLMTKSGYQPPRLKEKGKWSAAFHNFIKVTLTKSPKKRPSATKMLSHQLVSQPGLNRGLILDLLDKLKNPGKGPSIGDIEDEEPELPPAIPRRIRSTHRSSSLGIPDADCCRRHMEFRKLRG

Row | Structure (SMILES) | Ki
1 | CCn1cc(-c2n[nH]c3cnc(-c4c(C)cc(CNC)cc4F)cc23)cn1 [Example 133, 1-(4-(3-(1-Ethyl-1H-pyrazol-4-yl)-1H-pyrazolo[3,4-c]pyridin-5-yl)-3-fluoro-5-methylphenyl)-N-methylmethanamine] | ≤ 100 nM
2 | Cn1cc(-c2n[nH]c3cnc(-c4c(F)cc(OCc5ccncc5)cc4F)cc23)cn1 [Example 108, 5-(2,6-Difluoro-4-(pyridin-4-ylmethoxy)phenyl)-3-(1-methyl-1H-pyrazol-4-yl)-1H-pyrazolo[3,4-c]pyridine] | ≤ 100 nM
3 | CNC(C)c1cc(C)c(-c2cc3c(-c4cnn(C5CC5)c4)n[nH]c3cn2)c(F)c1 (single isomer, unassigned) [Example 229, 1-(4-(3-(1-Cyclopropyl-1H-pyrazol-4-yl)-1H-pyrazolo[3,4-c]pyridin-5-yl)-3-fluoro-5-methylphenyl)-N-methylethanamine] | ≤ 100 nM
4 | CNCc1cc(F)c(-c2cc3c(-c4cnn(C)c4)n[nH]c3cn2)c(F)c1 [Example 122, 1-(3,5-Difluoro-4-(3-(1-methyl-1H-pyrazol-4-yl)-1H-pyrazolo[3,4-c]pyridin-5-yl)phenyl)-N-methylmethanamine] | ≤ 100 nM
5 | CC(C)NCc1cc(F)c(-c2cc3c(NC(=O)c4ccc(F)c(N5CCN(C)CC5)c4)n[nH]c3cn2)c(F)c1 [Example 151, N-(5-(2,6-Difluoro-4-((isopropylamino)methyl)phenyl)-1H-pyrazolo[3,4-c]pyridin-3-yl)-4-fluoro-3-(4-methylpiperazin-1-yl)benzamide] | ≤ 100 nM
6 | COc1cccc(F)c1-c1cc2c(-c3cccc(C4CCN(C)CC4)n3)n[nH]c2cn1 [Example 115, 5-(2-Fluoro-6-methoxyphenyl)-3-(6-(1-methylpiperidin-4-yl)pyridin-2-yl)-1H-pyrazolo[3,4-c]pyridine] | ≤ 100 nM
7 | CNC1CCCc2c1ccc(F)c2-c1cc2c(-c3ccc(N4CCN(C)CC4)nc3)n[nH]c2cn1 (stereo not drawn) [Example 240, 6-Fluoro-N-methyl-5-(3-(6-(4-methylpiperazin-1-yl)pyridin-3-yl)-1H-pyrazolo[3,4-c]pyridin-5-yl)-1,2,3,4-tetrahydronaphthalen-1-amine] | ≤ 100 nM
8 | COc1cccc(F)c1-c1cc2c(NC(=O)c3ccc(N4CCN(C(C)C)CC4)cc3)n[nH]c2cn1 [Example 30, N-(5-(2-Fluoro-6-methoxyphenyl)-1H-pyrazolo[3,4-c]pyridin-3-yl)-4-(4-isopropylpiperazin-1-yl)benzamide] | ≤ 100 nM
9 | COCCNC(=O)c1cc(F)c(-c2cc3c(-c4cnn(C)c4)n[nH]c3cn2)c(F)c1 [Example 57, 3,5-Difluoro-N-(2-methoxyethyl)-4-(3-(1-methyl-1H-pyrazol-4-yl)-1H-pyrazolo[3,4-c]pyridin-5-yl)benzamide] | ≤ 100 nM
10 | COc1cccc(Cl)c1-c1cc2c(-c3ccc(N4CCN(C)CC4)cc3)n[nH]c2cn1 [Example 52, 5-(2-Chloro-6-methoxyphenyl)-3-(4-(4-methylpiperazin-1-yl)phenyl)-1H-pyrazolo[3,4-c]pyridine] | ≤ 100 nM
11 | CNCc1cccc(-c2cc3c(-c4cnn(C)c4)n[nH]c3cn2)c1C(F)(F)F [Example 88, N-Methyl-1-(3-(3-(1-methyl-1H-pyrazol-4-yl)-1H-pyrazolo[3,4-c]pyridin-5-yl)-2-(trifluoromethyl)phenyl)methanamine] | ≤ 100 nM
12 | Cn1cc(-c2n[nH]c3cnc(-c4c(F)cc(NC(=O)CN5CCCC5)cc4Cl)cc23)cn1 [Example 73, N-(3-Chloro-5-fluoro-4-(3-(1-methyl-1H-pyrazol-4-yl)-1H-pyrazolo[3,4-c]pyridin-5-yl)phenyl)-2-(pyrrolidin-1-yl)acetamide] | ≤ 100 nM
13 | Cc1cccc(F)c1-c1cc2c(NC(=O)c3ccc(N4CCN(C)CC4)cc3NCC(C)O)n[nH]c2cn1 (stereo not drawn) [Example 158, N-(5-(2-Fluoro-6-methylphenyl)-1H-pyrazolo[3,4-c]pyridin-3-yl)-2-(2-hydroxypropylamino)-4-(4-methylpiperazin-1-yl)benzamide] | ≤ 100 nM
14 | CNCc1ccc(F)c(-c2cc3c(-c4cnn(C)c4)n[nH]c3cn2)c1C [Example 92, 1-(4-Fluoro-2-methyl-3-(3-(1-methyl-1H-pyrazol-4-yl)-1H-pyrazolo[3,4-c]pyridin-5-yl)phenyl)-N-methylmethanamine] | ≤ 100 nM
15 | Cn1cc(-c2n[nH]c3cnc(-c4c(F)cc(NC(=O)CN5CCCC5)cc4F)cc23)cn1 [Example 64, N-(3,5-Difluoro-4-(3-(1-methyl-1H-pyrazol-4-yl)-1H-pyrazolo[3,4-c]pyridin-5-yl)phenyl)-2-(pyrrolidin-1-yl)acetamide] | ≤ 100 nM
16 | CN1CCN(c2ncc(-c3n[nH]c4cnc(-c5c(F)cc(CC#N)cc5F)cc34)cn2)CC1 [Example 211, 2-(3,5-Difluoro-4-(3-(2-(4-methylpiperazin-1-yl)pyrimidin-5-yl)-1H-pyrazolo[3,4-c]pyridin-5-yl)phenyl)acetonitrile] | ≤ 100 nM
17 | Cc1cc(CNCc2cocn2)cc(F)c1-c1cc2c(-c3cnn(C)c3)n[nH]c2cn1 [Example 187, N-(3-Fluoro-5-methyl-4-(3-(1-methyl-1H-pyrazol-4-yl)-1H-pyrazolo[3,4-c]pyridin-5-yl)benzyl)-1-(oxazol-4-yl)methanamine] | ≤ 100 nM

Now from value to molecule:

Row | Ki | Structure (SMILES)
18 | ≤ 100 nM | CN1CCN(c2ccc(-c3n[nH]c4cnc(-c5c(F)cccc5C(F)(F)F)cc34)cc2)CC1 [Example 53, 5-(2-Fluoro-6-(trifluoromethyl)phenyl)-3-(4-(4-methylpiperazin-1-yl)phenyl)-1H-pyrazolo[3,4-c]pyridine]
19 | ≤ 100 nM | CNC(=O)c1ccc(-c2n[nH]c3cnc(-c4c(F)ccc5c4CCCC5NC)cc23)cn1 (stereo not drawn) [Example 208, 5-(5-(2-Fluoro-5-(methylamino)-5,6,7,8-tetrahydronaphthalen-1-yl)-1H-pyrazolo[3,4-c]pyridin-3-yl)-N-methylpicolinamide]
20 | ≤ 100 nM | Cc1cccc(F)c1-c1cc2c(NC(=O)c3ccc(N4CCN(C)CC4)cc3NC3CCC(C#N)C3)n[nH]c2cn1 (stereo not drawn) [Example 160, 2-(3-Cyanocyclopentylamino)-N-(5-(2-fluoro-6-methylphenyl)-1H-pyrazolo[3,4-c]pyridin-3-yl)-4-(4-methylpiperazin-1-yl)benzamide]
21 | ≤ 100 nM | CCN1CCN(c2ccc(C(=O)Nc3n[nH]c4cnc(-c5c(F)cccc5OC)cc34)cc2)CC1 [Example 28, 4-(4-Ethylpiperazin-1-yl)-N-(5-(2-fluoro-6-methoxyphenyl)-1H-pyrazolo[3,4-c]pyridin-3-yl)benzamide]
22 | ≤ 100 nM | CCN(C)c1cccc(-c2n[nH]c3cnc(-c4c(C)cc(CNC)cc4F)cc23)n1 [Example 118, N-Ethyl-6-(5-(2-fluoro-6-methyl-4-((methylamino)methyl)phenyl)-1H-pyrazolo[3,4-c]pyridin-3-yl)-N-methylpyridin-2-amine]
23 | ≤ 100 nM | COc1cccc(F)c1-c1cc2c(NC(=O)c3cc(F)cc(F)c3)n[nH]c2cn1 [Example 11, 3,5-Difluoro-N-(5-(2-fluoro-6-methoxyphenyl)-1H-pyrazolo[3,4-c]pyridin-3-yl)benzamide]
24 | ≤ 100 nM | COc1cccc(F)c1-c1cc2c(NC(=O)c3ccc(N4CCNCC4)cc3)n[nH]c2cn1 [Example 33, N-(5-(2-Fluoro-6-methoxyphenyl)-1H-pyrazolo[3,4-c]pyridin-3-yl)-4-(piperazin-1-yl)benzamide]
25 | ≤ 100 nM | Cc1c(CNC(C)C)ccc(F)c1-c1cc2c(-c3cnn(C)c3)n[nH]c2cn1 [Example 93, N-(4-Fluoro-2-methyl-3-(3-(1-methyl-1H-pyrazol-4-yl)-1H-pyrazolo[3,4-c]pyridin-5-yl)benzyl)propan-2-amine]
26 | ≤ 100 nM | Cn1cc(-c2n[nH]c3cnc(-c4c(F)ccc(NC(=O)C5CCC5)c4F)cc23)cn1 [Example 59, N-(2,4-Difluoro-3-(3-(1-methyl-1H-pyrazol-4-yl)-1H-pyrazolo[3,4-c]pyridin-5-yl)phenyl)cyclobutanecarboxamide]
27 | ≤ 100 nM | CNCc1cc(C)c(-c2cc3c(-c4ccc(N5CCC(O)C5)nc4)n[nH]c3cn2)c(F)c1 (stereo not drawn) [Example 113, 1-(5-(5-(2-Fluoro-6-methyl-4-((methylamino)methyl)phenyl)-1H-pyrazolo[3,4-c]pyridin-3-yl)pyridin-2-yl)pyrrolidin-3-ol]
28 | ≤ 100 nM | Cc1cc(C2CCCN2C)cc(F)c1-c1cc2c(-c3cnn(C)c3)n[nH]c2cn1 (stereo not drawn) [Example 173, 5-(2-Fluoro-6-methyl-4-(1-methylpyrrolidin-2-yl)phenyl)-3-(1-methyl-1H-pyrazol-4-yl)-1H-pyrazolo[3,4-c]pyridine]
29 | ≤ 100 nM | COc1cccc(F)c1-c1cc2c(NC(=O)c3cccc(N4CCN(S(C)(=O)=O)CC4)c3)n[nH]c2cn1 [Example 22, N-(5-(2-Fluoro-6-methoxyphenyl)-1H-pyrazolo[3,4-c]pyridin-3-yl)-3-(4-(methylsulfonyl)piperazin-1-yl)benzamide]
30 | ≤ 100 nM | CN1CCN(c2ccc(-c3n[nH]c4cnc(-c5c(F)cc6c(c5F)CCCC6N)cc34)cn2)CC1 (stereo not drawn) [Example 203, 5,7-Difluoro-6-(3-(6-(4-methylpiperazin-1-yl)pyridin-3-yl)-1H-pyrazolo[3,4-c]pyridin-5-yl)-1,2,3,4-tetrahydronaphthalen-1-amine]
31 | ≤ 100 nM | Cc1cccc(F)c1-c1cc2c(NC(=O)c3ccc(N4CCN(C)CC4)cc3N)n[nH]c2cn1 [Example 157, 2-Amino-N-(5-(2-fluoro-6-methylphenyl)-1H-pyrazolo[3,4-c]pyridin-3-yl)-4-(4-methylpiperazin-1-yl)benzamide]
32 | ≤ 100 nM | COc1cc(NC(=O)CN2CCCC2)cc(F)c1-c1cc2c(-c3cnn(C)c3)n[nH]c2cn1 [Example 74, N-(3-Fluoro-5-methoxy-4-(3-(1-methyl-1H-pyrazol-4-yl)-1H-pyrazolo[3,4-c]pyridin-5-yl)phenyl)-2-(pyrrolidin-1-yl)acetamide]
33 | ≤ 100 nM | COc1cccc(F)c1-c1cc2c(N3CCN(c4ccc(C#N)cc4)CC3)n[nH]c2cn1 [Example 39, 4-(4-(5-(2-Fluoro-6-methoxyphenyl)-1H-pyrazolo[3,4-c]pyridin-3-yl)piperazin-1-yl)benzonitrile]
